{
  "source": "patent US20210388319A1",
  "about": "“EXPANSION OF HEMATOPOIETIC STEM CELLS” (Mesoblast International Sarl, priority 2018, published 2021)",
  "key": {"[1]": {"system": "CB CD34+ cells (cord blood derived CD34+ HSCs)", "experiment": "Co-culture of cord blood CD34+ cells with MPCs and small molecules, 4-colour flow cytometric analysis", "type": "cell-based, human", "details": "for expansion of CD34+ cells with the primitive HSC phenotype CD34+CD45RA− CD90+CD49f+: day 10, presence of MPCs and HDACi versus absence of MPCs or a HDACi (FIG. 9)", "experimental": "• Cells: CB CD34+ (Stem Cell Technologies) • Medium: StemSpan SFEM (StemCell Technologies) supplemented with: • Human low density lipoprotein (Stem Cell Technologies) 10 μg/ml • Growth Factors (‘SFT’): • rHu-SCF 100 ng/ml • rHu-FLT3Ligand 100 ng/ml • rHu-TPO 50 ng/ml • (All recombinant cytokines are from R&D Systems) • Small Molecules: • SR1 (500 nM); UM171 (35 nM); Trichostatin A (TSA, 50 nM); Valproic Acid (VPA, 500 μM) (all from Stem Cell Technologies) • Assay conditions: • Day −1 MPC (MCBCC006) plated at 50,000/well in 2×24-well plates in Alpha-MEM/10% FBS • Day 0 10,000 CD34+ cells per well plated into each well of two 24 well plates. MPC containing wells were first washed to remove FBS medium. • The remaining CD34+ cells were cultured at the same concentration in a T-25 flask in StemSpan/SFT/SR-1+ UM171. This was to provide bulk cells for set up of flow cytometry analysis and to define electronic compensation settings for multicolour analysis. • Day 3 All groups were fed by removing 1.5 mL of media and replacing with 2.0 mL of fresh media+additives. • Day 5 Flow cytometric analysis: 1.5 mL of culture media was harvested from each well. For the suspension (No MPG) groups this was achieved by first aspirating the medium up and down to completely suspend the CD34+ cells before removing 1.5 mL of the suspension. For the +MPG groups, the CD34+ cells were resuspended in such a way that the MPC feeder layer was left intact. After the cells were removed from each well, they were replaced with 2.0 mL of fresh media+additives. A cell count was performed on all wells. This was required to determine not only the incidence of populations identified by FACS analysis, but also their absolute number. • Day 8 All groups were fed by removing 2.0 mL of media and replacing with 2.0 mL of fresh media and additives. • Day 10 Flow cytometric analysis: The complete content of each well was harvested. For the suspension (No MPG) groups this was achieved by first aspirating the medium up and down to completely suspend the CD34+ cells before removing the suspension. For the +MPG groups, the CD34+ cells in suspension were first harvested (as described above for Day 5). CD34+ cells attached to the MPC layer were then detached by a brief exposure (5 mins) to 0.05% trypsin-EDTA in PBS at 37° C., the trypsin quenched in 10% FBS and the detached cells pooled with the previously harvested suspension fraction to represent the Day 10 harvest.\nA 4-colour flow cytometric analysis was performed to allow identification and quantitation of CD34+ cells and relevant subpopulations including candidate hematopoietic stem cells (HSC) according to the phenotype CD34+CD45RA− CD90+CD49f+ described for cord blood (Notta et al., (2011) Science 333: 218-221). All antibody conjugates were used at concentrations recommended by the manufacturers.\nAs noted above, the bulk culture of CD34+ cells in StemSpan/SFT/SR-1+ UM171 was used at both Day 5 and Day 10 to establish settings for flow cytometric analysis and to establish compensation settings. Stains with the following antibody/antibody combinations were performed:\nCord blood derived CD34+ HSCs were cultured in the presence and absence of immunoselected MPCs in the presence of: […]"}, "[2]": {"system": "CD34+CD38-CD45RA− CD90+CD49f+ cells", "experiment": "Colony-forming unit (CFU) assay in MethoCult H4435 Enriched of FACS-isolated cells", "type": "cell-based, human", "details": "cells isolated by FACS after 10 days in co-culture with MPCs, SFV and VPA; colonies scored on day 14", "experimental": "FIG. 11: CD34+CD38-CD45RA− CD90+CD49f+ cells isolated by FACS were cultured in MethoCult™ H4435 Enriched (Stem cell Technologies), and tested for colony forming efficiency on day 14 of culture. Overall colony forming efficiency was 0.42%.\nCD34+CD38-CD45RA− CD90+CD49f+ cells were isolated by FACS after 10 days in co-culture with MPCs, SFV and VPA. These isolated cells were then cultured in MethoCult™ H4435 Enriched (Stem cell Technologies), which is a complete methylcellulose-based medium containing IL-3, IL-6, G-CSF, GM-CSF, SCF and EPO and useful for growth and enumeration of hematopoietic progenitor cells in colony-forming unit (CFU) assays). Colonies were scored on day 14 of culture and tested for colony forming efficiency. […] Overall colony forming efficiency was 0.42%."}},
  "data": [
    {"smiles": "CC(/C=C/C(=O)NO)=C\\[C@@H](C)C(=O)c1ccc(N(C)C)cc1", "note": "[TSA, Trichostatin A]", "values": [
      {"measurement": "expansion of CD34+ cells with the primitive HSC phenotype CD34+CD45RA− CD90+CD49f+", "setting": "[1]", "result": "substantially greater expansion"}
    ]},
    {"smiles": "CCCC(CCC)C(=O)O", "note": "[VPA, Valproic Acid]", "values": [
      {"measurement": "overall colony forming efficiency", "setting": "[2]", "result": 0.42, "unit": "%"},
      {"measurement": "number of CD34+CD45RA− CD90+CD49f+ cells", "setting": "[1]; after 10 days in co-culture with MPCs, SFV and VPA (500 μM), start about 500 primitive cells", "result": "about 22,000 cells"},
      {"measurement": "number of CD34+ cells", "setting": "[1]; after 10 days in co-culture with MPCs, SFV and VPA (500 μM), start about 10,000 CD34+ cells", "result": "about 800,000 cells"},
      {"measurement": "expansion of CD34+ cells with the primitive HSC phenotype CD34+CD45RA− CD90+CD49f+", "setting": "[1]", "result": "substantially greater expansion"},
      {"measurement": "increase in the number of CD34+CD90+CD49f+ cells", "setting": "[1]; over a 10 day period, co-culture with MPCs, SFV and VPA", "result": "~44", "unit": "fold"}
    ]}
  ]
}
